# Patent US20230257372A1 (CHONG KUN DANG PHARMACEUTICAL CORP., priority 2020, published 2023)
# pIC50: −log10 of the molar value. Read-outs that look alike come from different tables or passages of the source.
# What was measured:
# human recombinant HDAC1 = molecular target: T1, human recombinant HDAC1 (Homo sapiens, UniProt Q13547); experiment: HDAC1 enzyme activity inhibition (HDAC Fluorimetric Drug Discovery Kit); format: biochemical; settings: read-out: HDAC1
# T1 construct: purchased Enzo Life Science, Inc. BML-SE456
# T1 sequence (Q13547 whole entry): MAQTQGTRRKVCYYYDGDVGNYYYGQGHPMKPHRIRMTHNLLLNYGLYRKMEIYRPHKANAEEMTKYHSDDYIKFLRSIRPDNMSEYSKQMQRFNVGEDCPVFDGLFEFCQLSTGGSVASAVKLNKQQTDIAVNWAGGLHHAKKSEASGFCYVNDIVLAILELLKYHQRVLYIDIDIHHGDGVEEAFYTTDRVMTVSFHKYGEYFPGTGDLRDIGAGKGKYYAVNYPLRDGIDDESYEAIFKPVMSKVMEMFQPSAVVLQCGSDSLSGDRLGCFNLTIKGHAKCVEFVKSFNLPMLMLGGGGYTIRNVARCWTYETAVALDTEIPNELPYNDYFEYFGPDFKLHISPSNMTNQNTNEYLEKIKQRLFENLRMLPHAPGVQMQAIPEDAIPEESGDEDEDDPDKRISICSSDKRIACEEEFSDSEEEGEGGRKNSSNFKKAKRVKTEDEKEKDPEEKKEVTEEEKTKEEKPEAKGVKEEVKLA
# Procedure, shortened: (§1)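 Fluorescence from a Fluor de Lys developer step (30 minutes) reports residual deacetylation after a 60-minute, 30° C reaction of […] enzyme with 10 μM substrate and 5-fold compound dilutions.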
# human recombinant HDAC6 = molecular target: T2, human recombinant HDAC6 (Homo sapiens, UniProt Q9UBN7); experiment: HDAC6 enzyme activity inhibition (HDAC Fluorimetric Drug Discovery Kit); format: biochemical
# T2 construct: purchased Calbiochem Inc. 382180
# T2 sequence (Q9UBN7 1-1215): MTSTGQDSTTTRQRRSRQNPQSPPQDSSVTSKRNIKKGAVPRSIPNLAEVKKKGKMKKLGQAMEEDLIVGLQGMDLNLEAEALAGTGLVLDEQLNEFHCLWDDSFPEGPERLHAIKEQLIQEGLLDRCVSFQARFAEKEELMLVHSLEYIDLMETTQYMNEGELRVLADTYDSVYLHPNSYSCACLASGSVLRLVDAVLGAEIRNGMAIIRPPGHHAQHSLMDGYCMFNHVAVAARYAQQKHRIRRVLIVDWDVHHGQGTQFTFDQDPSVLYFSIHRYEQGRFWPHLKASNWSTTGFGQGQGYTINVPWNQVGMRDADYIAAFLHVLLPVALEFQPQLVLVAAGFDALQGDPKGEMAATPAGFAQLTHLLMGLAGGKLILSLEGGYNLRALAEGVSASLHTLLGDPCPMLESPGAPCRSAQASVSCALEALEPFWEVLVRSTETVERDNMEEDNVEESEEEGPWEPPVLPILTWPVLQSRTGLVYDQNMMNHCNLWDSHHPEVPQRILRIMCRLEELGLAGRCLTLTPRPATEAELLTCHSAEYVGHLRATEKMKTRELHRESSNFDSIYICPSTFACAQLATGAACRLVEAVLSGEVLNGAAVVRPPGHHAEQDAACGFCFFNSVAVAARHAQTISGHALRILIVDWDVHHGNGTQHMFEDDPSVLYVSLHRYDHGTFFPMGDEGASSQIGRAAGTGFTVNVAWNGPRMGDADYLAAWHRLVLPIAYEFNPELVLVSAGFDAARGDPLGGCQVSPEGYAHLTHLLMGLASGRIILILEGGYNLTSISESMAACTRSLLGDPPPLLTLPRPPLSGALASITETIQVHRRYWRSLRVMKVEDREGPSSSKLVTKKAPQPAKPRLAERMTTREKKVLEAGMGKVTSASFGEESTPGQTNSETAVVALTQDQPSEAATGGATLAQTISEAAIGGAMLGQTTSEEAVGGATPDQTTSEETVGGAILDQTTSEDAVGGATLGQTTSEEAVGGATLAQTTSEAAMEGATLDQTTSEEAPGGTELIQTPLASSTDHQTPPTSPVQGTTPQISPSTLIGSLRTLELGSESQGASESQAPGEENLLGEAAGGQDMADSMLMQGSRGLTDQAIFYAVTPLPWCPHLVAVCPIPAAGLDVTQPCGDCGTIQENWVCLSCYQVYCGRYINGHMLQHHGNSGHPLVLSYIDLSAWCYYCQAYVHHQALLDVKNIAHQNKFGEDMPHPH
# Procedure, shortened: as §1
# [1] = human recombinant HDAC1, Fluor de Lys substrate, 30° C. 60 minutes
# [2] = human recombinant HDAC6, same protocol as HDAC1
# [3] = human recombinant HDAC1, IC50 calculated with GraphPad Prism
# [4] = human recombinant HDAC6, IC50 calculated with GraphPad Prism
pIC50 (human recombinant HDAC1; [1]),HDAC6 selectivity (fold) (human recombinant HDAC6; HDAC6 over HDAC1),pIC50 (human recombinant HDAC6; [2]),pIC50 (human recombinant HDAC1; [3]),HDAC6 selectivity (fold) (human recombinant HDAC6; HDAC1 IC50 / HDAC6 IC50),pIC50 (human recombinant HDAC6; [4]),Structure (SMILES)
< 4.30,5882,8.07,–,–,–,"FC(F)c1nnc(-c2ccc(Cn3cc(-c4ccc(CN5CCC5)cc4)nn3)nc2)o1 [Compound 4558, 2-(6-((4-(4-(azetidin-1-ylmethyl)phenyl)-1H-1,2,3-triazol-1-yl)methyl)pyridin-3-yl)-5-(difluoromethyl)-1,3,4-oxadiazole]"
< 4.30,371,6.87,–,–,–,"CN1CC(c2cccc(-c3cn(Cc4ccc(-c5nnc(C(F)F)o5)cc4)nn3)c2)C1 [Compound 4528, 2-(difluoromethyl)-5-(4-((4-(3-(1-methylazetidin-3-yl)phenyl)-1H-1,2,3-triazol-1-yl)methyl)phenyl)-1,3,4-oxadiazole]"
< 4.30,308,6.79,–,–,–,"Fc1cc(-c2nnc(C(F)F)o2)ccc1Cn1cc(-c2ccccc2CNC2COC2)nn1 [Compound 4590, N-(2-(1-(4-(5-(difluoromethyl)-1,3,4-oxadiazol-2-yl)-2-fluorobenzyl)-1H-1,2,3-triazol-4-yl)benzyl)oxetan-3-amine]"
< 4.30,675,7.13,–,–,–,"Fc1cc(-c2nnc(C(F)F)o2)cnc1Cn1cc(-c2cccc(C3CCN(C4COC4)CC3)c2)nn1 [Compound 18871, 2-(difluoromethyl)-5-(5-fluoro-6-((4-(3-(1-(oxetan-3-yl)piperidin-4-yl)phenyl)-1H-1,2,3-triazol-1-yl)methyl)pyridin-3-yl)-1,3,4-oxadiazole]"
< 4.30,1043,7.32,–,–,–,"Fc1cc(-c2nnc(C(F)F)o2)ccc1Cn1cc(-c2cncc(Br)c2)nn1 [Compound 16930, 2-(4-((4-(5-bromopyridin-3-yl)-1H-1,2,3-triazol-1-yl)methyl)-3-fluorophenyl)-5-(difluoromethyl)-1,3,4-oxadiazole]"
< 4.30,572,7.06,–,–,–,"CC(C)N1Cc2cccc(-c3cn(Cc4ccc(-c5nnc(C(F)F)o5)cc4F)nn3)c2C1 [Compound 4536, 2-(difluoromethyl)-5-(3-fluoro-4-((4-(2-isopropylisoindolin-4-yl)-1H-1,2,3-triazol-1-yl)methyl)phenyl)-1,3,4-oxadiazole]"
< 4.30,672,7.13,–,–,–,"Fc1cc(-c2nnc(C(F)F)o2)ccc1Cn1cc(-c2csc(CN3CC[C@@H](F)C3)c2)nn1 [Compound 18180, (R)-2-(difluoromethyl)-5-(3-fluoro-4-((4-(5-((3-fluoropyrrolidin-1-yl)methyl)thiophen-3-yl)-1H-1,2,3-triazol-1-yl)methyl)phenyl)-1,3,4-oxadiazole]"
< 4.30,5681,8.06,–,–,–,"FC(F)c1nnc(-c2ccc(Cn3cc(-c4cnc5[nH]ccc5c4)nn3)cc2)o1 [Compound 4525, 2-(4-((4-(1H-pyrrolo[2,3-b]pyridin-5-yl)-1H-1,2,3-triazol-1-yl)methyl)phenyl)-5-(difluoromethyl)-1,3,4-oxadiazole]"
< 4.30,1923,7.59,–,–,–,CC(C)N1CCN(c2cccc(-c3cn(Cc4ccc(-c5nnc(C(F)F)o5)cc4F)nn3)c2F)CC1 [Compound 4578]

# Continued, molecule first:
Structure (SMILES),pIC50 (human recombinant HDAC1; [1]),HDAC6 selectivity (fold) (human recombinant HDAC6; HDAC6 over HDAC1),pIC50 (human recombinant HDAC6; [2]),pIC50 (human recombinant HDAC1; [3]),HDAC6 selectivity (fold) (human recombinant HDAC6; HDAC1 IC50 / HDAC6 IC50),pIC50 (human recombinant HDAC6; [4])
"Fc1cc(-c2nnc(C(F)F)o2)ccc1Cn1cc(-c2ccc3c(c2)CCN(C2CN(C4CCC4)C2)C3)nn1 [Compound 4394, 2-(4-((4-(2-(1-cyclobutylazetidin-3-yl)-1,2,3,4-tetrahydroisoquinolin-6-yl)-1H-1,2,3-triazol-1-yl)methyl)-3-fluorophenyl)-5-(difluoromethyl)-1,3,4-oxadiazole]",–,–,–,< 4.30,706,7.15
"Fc1cc(-c2nnc(C(F)F)o2)ccc1Cn1cc(C2(F)COC2)nn1 [Compound 4282, 2-(difluoromethyl)-5-(3-fluoro-4-((4-(3-fluorooxetan-3-yl)-1H-1,2,3-triazol-1-yl)methyl)phenyl)-1,3,4-oxadiazole]",–,–,–,< 4.30,209,6.62
"CC(=O)N1CCC[C@H]1c1cn(Cc2ccc(-c3nnc(C(F)F)o3)cn2)nn1 [Compound 4029, (S)-1-(2-(1-((5-(5-(difluoromethyl)-1,3,4-oxadiazol-2-yl)pyridin-2-yl)methyl)-1H-1,2,3-triazol-4-yl)pyrrolidin-1-yl)ethan-1-one]",–,–,–,< 4.30,239,6.68
"Fc1cc(-c2nnc(C(F)F)o2)ccc1Cn1cc(-c2ccc(CN3CCOCC3)cc2)nn1 [Compound 4471, 4-(4-(1-(4-(5-(difluoromethyl)-1,3,4-oxadiazol-2-yl)-2-fluorobenzyl)-1H-1,2,3-triazol-4-yl)benzyl)morpholine]",–,–,–,< 4.30,1116,7.35
"CC(=O)N1CCC(F)(c2cn(Cc3ccc(-c4nnc(C(F)F)o4)cn3)nn2)CC1 [Compound 4009, 1-(4-(1-((5-(5-(difluoromethyl)-1,3,4-oxadiazol-2-yl)pyridin-2-yl)methyl)-1H-1,2,3-triazol-4-yl)-4-fluoropiperidin-1-yl)ethan-1-one]",–,–,–,< 4.30,405,6.91
CN(C)CCC(=O)Nc1cccc(-c2cn(Cc3ccc(-c4nnc(C(F)F)o4)cc3F)nn2)c1 [Compound 4335],–,–,–,< 4.30,797,7.20
"Fc1ccc(-c2cn(Cc3ccc(-c4nnc(C(F)F)o4)cc3)nn2)cc1N1CCN(C2CCC2)CC1 [Compound 4422, 2-(4-((4-(3-(4-cyclobutylpiperazin-1-yl)-4-fluorophenyl)-1H-1,2,3-triazol-1-yl)methyl)phenyl)-5-(difluoromethyl)-1,3,4-oxadiazol]",–,–,–,< 4.30,127,6.41
"Fc1ccc(-c2cn(Cc3ccc(-c4nnc(C(F)F)o4)cc3F)nn2)cc1F [Compound 3662, 2-(difluoromethyl)-5-(4-((4-(3,4-difluorophenyl)-1H-1,2,3-triazol-1-yl)methyl)-3-fluorophenyl)-1,3,4-oxadiazole]",–,–,–,< 4.30,289,6.76
"C[C@@H]1CN(c2cccc(-c3cn(Cc4ccc(-c5nnc(C(F)F)o5)cc4)nn3)c2)C[C@H](C)N1C [Compound 4441, 2-(difluoromethyl)-5-(4-((4-(3-((3R,5S)-3,4,5-trimethylpiperazin-1-yl)phenyl)-1H-1,2,3-triazol-1-yl)methyl)phenyl)-1,3,4-oxadiazole]",–,–,–,< 4.30,1315,7.42
"OC1(c2cn(Cc3ccc(-c4nnc(C(F)F)o4)cn3)nn2)COC1 [Compound 4276, 3-(1-((5-(5-(difluoromethyl)-1,3,4-oxadiazol-2-yl)pyridin-2-yl)methyl)-1H-1,2,3-triazol-4-yl)oxetan-3-ol]",–,–,–,< 4.30,143,6.46
"Fc1cc(-c2nnc(C(F)F)o2)ccc1Cn1cc(-c2ccc3c(c2)CN(C2COC2)C3)nn1 [Compound 4519, 2-(difluoromethyl)-5-(3-fluoro-4-((4-(2-(oxetan-3-yl)isoindolin-5-yl)-1H-1,2,3-triazol-1-yl)methyl)phenyl)-1,3,4-oxadiazole]",< 4.30,994,7.30,–,–,–
"C[C@@H]1CN(c2cccc(-c3cn(Cc4ccc(-c5nnc(C(F)F)o5)cc4F)nn3)c2)C[C@H](C)N1C [Compound 4443, 2-(difluoromethyl)-5-(3-fluoro-4-((4-(3-((3R,5S)-3,4,5-trimethylpiperazin-1-yl)phenyl)-1H-1,2,3-triazol-1-yl)methyl)phenyl)-1,3,4-oxadiazole]",–,–,–,< 4.30,2183,7.64
